Where two headings read alike, the source gives them in different places.
Legend:
acetylcholinesterase [1] = biological target: T1, acetylcholinesterase (Electrophorus electricus, UniProt O42275); assay: Acetylcholinesterase activity inhibition assay, electric eel extract; assay type: biochemical; conditions: at 10⁻⁵ M
T1 construct: tested for anticholinesterase acitivity in chicken brain homogenate and electric eel extract; from tissue
Method: (§1) The AZT prodrug was evaluated for anticholinesterase activity at the Laboratory of Neurotoxicology and Pharmacology at Duke University using a standard well established acetylcholinesterase activity inhibition assay. Elleman et. al.; Biochemical Pharmacology; 7:88 (1962) The prodrug was tested for anticholinesterase acitivity in chicken brain homogenate and electric eel extract.

[2] = Acute toxicity in mice, intraperitoneal; assay type: in vivo; conditions: IP
HIV = assay: Antiviral assay, HIV-induced cytopathic effect in CEM cells (tetrazolium/formazan viability readout); assay type: cell-based; conditions: Human immunodeficiency virus 1, CCRF-CEM; for IC90: read-out: IC₉₀
Method: (§2) The antiviral activity of the AZT prodrug was evaluated in the Retrovirus Research Laboratory at Southern Research Institute. The AZT prodrug (Structure 5) was tested against HIV in CEM cells in a standardized assay system. In this assay the CEM cells were grown in microtitre plates and incubated for 6 day with or without a HIV. The cells were incubated with prodrug or AZT at varying concentrations. After 6 days the percentage of viable cells was measured by employing a standardized assay based upon the conversion of a tetrazolium salt to a formazan chromaphore by viable cells. (T.Mossman; J.Immunol.Methods 65:55 (1983)) The production of the chromaphore was measured spectrophotometrically with a Molecular Devices Vmax plate reader at 570 nm. From the optical density data a computer program calculated the per cent reduction in viral cytopathic effect (CPE), the prodrugs cytotoxic effect, and IC₅₀ values.
The IC₅₀ value; defined as that concentration of drug inhibited the HIV induced CPE 50% was 24 nanamolar for the AZT prodrug. […] When the prodrug was added to the cell cultures 8 hours prior to infecting with HIV the IC₅₀ for the prodrug was 5 nanamolar. The IC9₉₀ for the prodrug was 10 nanamolar. The IC₅₀ for AZT under the same conditions was also 5 nanamolar. The IC₉₀ for AZT was 10 nanamolar. The data is summarized in the graph below for an experiment in which the prodrug or AZT were added 8 hours prior to the time of infection with the HIV. [formula] The graph below summarizes the results of an experiment in which the antiviral activity of the AZT prodrug was added 8 hours prior to infection or at the time of infection. [formula]

acetylcholinesterase [3] = biological target: T2, acetylcholinesterase (Gallus gallus, UniProt P36196); assay: Acetylcholinesterase activity inhibition assay, chicken brain homogenate; assay type: biochemical; conditions: at 10⁻⁵ M
T2 construct: tested for anticholinesterase acitivity in chicken brain homogenate and electric eel extract; from tissue; host or cells: chicken brain homogenate
T2 sequence (P36196 20-767): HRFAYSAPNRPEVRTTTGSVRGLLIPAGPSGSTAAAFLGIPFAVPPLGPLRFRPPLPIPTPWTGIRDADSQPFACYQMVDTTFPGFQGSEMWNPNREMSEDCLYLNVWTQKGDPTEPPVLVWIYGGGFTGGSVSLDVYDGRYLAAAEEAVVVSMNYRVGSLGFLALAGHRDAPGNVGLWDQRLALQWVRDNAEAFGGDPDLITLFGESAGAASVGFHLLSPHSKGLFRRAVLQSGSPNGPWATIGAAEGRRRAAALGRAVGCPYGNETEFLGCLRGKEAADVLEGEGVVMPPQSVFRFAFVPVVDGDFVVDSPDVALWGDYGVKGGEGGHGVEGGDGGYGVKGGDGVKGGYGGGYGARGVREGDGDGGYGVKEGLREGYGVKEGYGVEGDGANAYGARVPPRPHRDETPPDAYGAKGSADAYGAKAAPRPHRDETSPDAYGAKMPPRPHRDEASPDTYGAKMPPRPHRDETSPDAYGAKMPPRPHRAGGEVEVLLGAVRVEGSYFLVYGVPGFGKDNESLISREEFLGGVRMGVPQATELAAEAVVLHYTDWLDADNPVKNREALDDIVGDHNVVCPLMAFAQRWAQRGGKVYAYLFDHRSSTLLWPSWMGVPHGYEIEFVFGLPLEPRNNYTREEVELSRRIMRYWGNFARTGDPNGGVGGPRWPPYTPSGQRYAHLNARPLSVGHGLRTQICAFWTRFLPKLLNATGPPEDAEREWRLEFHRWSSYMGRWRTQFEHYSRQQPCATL
Method: as §1

[4] = Cytotoxicity in uninfected CEM cells (tetrazolium/formazan viability readout); assay type: cell-based; conditions: human, 6 days, read-out: TC₅₀ (concentration that resulted in a 50% reduction of cell viability in uninfected cells)
Method: as §2
The IC₅₀ value; defined as that concentration of drug inhibited the HIV induced CPE 50% was 24 nanamolar for the AZT prodrug. […] When the prodrug was added to the cell cultures 8 hours prior to infecting with HIV the IC₅₀ for the prodrug was 5 nanamolar. The IC9₉₀ for the prodrug was 10 nanamolar. The IC₅₀ for AZT under the same conditions was also 5 nanamolar. The IC₉₀ for AZT was 10 nanamolar. […]

[5] = biological target: HIV reverse transcriptase (Human immunodeficiency virus type 1 group M subtype B, UniProt P04585); conditions: read-out: concentration at which HIV reverse transcriptase is inhibited by 50%; cited from earlier work
[6] = cited from earlier work
[7] = added 8 hours prior to infecting with HIV, read-out: IC₅₀
[8] = added 8 hours prior to infecting with HIV

T1 sequence (O42275 24-633): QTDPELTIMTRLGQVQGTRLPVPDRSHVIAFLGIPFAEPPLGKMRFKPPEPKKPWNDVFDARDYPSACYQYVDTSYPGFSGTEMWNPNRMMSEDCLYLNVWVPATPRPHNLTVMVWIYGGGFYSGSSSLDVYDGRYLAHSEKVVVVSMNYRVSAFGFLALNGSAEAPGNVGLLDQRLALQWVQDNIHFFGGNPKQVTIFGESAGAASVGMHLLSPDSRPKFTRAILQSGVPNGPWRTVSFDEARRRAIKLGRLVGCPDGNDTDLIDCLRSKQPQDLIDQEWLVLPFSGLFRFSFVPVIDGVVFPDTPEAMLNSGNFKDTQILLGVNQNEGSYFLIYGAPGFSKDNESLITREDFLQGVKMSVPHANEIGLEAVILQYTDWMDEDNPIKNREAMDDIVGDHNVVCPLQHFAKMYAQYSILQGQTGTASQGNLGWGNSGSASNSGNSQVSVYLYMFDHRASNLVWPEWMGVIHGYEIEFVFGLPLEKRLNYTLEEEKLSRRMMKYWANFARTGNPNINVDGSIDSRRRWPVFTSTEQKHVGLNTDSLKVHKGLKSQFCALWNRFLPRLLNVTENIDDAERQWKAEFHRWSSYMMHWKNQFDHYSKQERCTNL

CCOC(=O)CC(OP(=O)(OC[C@H]1O[C@@H](n2cc(C)c(=O)[nH]c2=O)C[C@@H]1N=[N+]=[N-])OC(CC(=O)OCC)c1ccc(OC(C)=O)cc1)c1ccc(OC(C)=O)cc1 (stereo partly drawn) [AZT prodrug]
inhibition of acetylcholinesterase activity (acetylcholinesterase [1]): No inhibition | acute toxicity ([2]; mice, 100 mg/kg as an emulsion in 5% Emulphor EL 620): no acute toxicity | acute toxicity ([2]; one mouse, 300 mg/kg, 24 hour period of observation): without evident acute toxicity | IC50 (HIV; 144 h, 6 days, drug not added before infection, read-out: IC₅₀ (concentration that inhibited the HIV induced CPE 50%)): 24 nM | IC50 (HIV; [7]): 5 nM | IC90 (HIV; [8]): 10 nM | inhibition of acetylcholinesterase activity (acetylcholinesterase [3]): No inhibition | CC50 at 144 h [4]: 7800 nM

Cc1cn([C@H]2C[C@H](N=[N+]=[N-])[C@@H](CO)O2)c(=O)[nH]c1=O [AZT, 3'azido-3'deoxythymidine, reference compound]
IC50 (HIV; [7]): 5 nM | IC90 (HIV; [8]): 10 nM

O=C(O)P(=O)(O)O [Phosphonoformate]
IC50 [5]: < 2000 nM

COc1cc(C=CC(C)=O)ccc1O [methyl 4-hydroxy,3-methoxy-styryl ketone]
oral LD₅₀ [6]: > 2 grams/kg

— patent EP0533833B1, “PHOSPHOROUS PRODUGS” (priority 1990, dated 1991)
